# Patent US20170232083A1, “METHODS OF DIAGNOSIS AND TREATMENT OF CELIAC DISEASE IN CHILDREN” (priority 2014, published 2017)
# Values joined by “and” are separate entries in the source; they are usually repeats but may differ in a detail not shown here. Equal values may be shown once. Non-standard residues stand in square brackets, D forms with d. pGlu = O=C1CC[C@@H](C(=O)O)N1
# Tested on: peripheral blood mononuclear cells obtained from children
# Assay: IFNγ ELISpot PBMC assay after oral wheat bread challenge (Examples 1-2)
# Assay type: cell-based, human
# Experimental: An oral wheat bread challenge was conducted in DQ2.5+ children and adolescents having Celiac disease. The age ranges were 3-5, 6-10 and 11-18 years of age. An ELISpot peripheral blood mononucleated cell (PBMC) assay was performed to measure the level of IFNγ released by the PBMCs after being contacted with peptide 1, peptide 2, peptide 3, or a combination thereof. The identities of peptides 1, 2, and 3 are shown below.
# The values the rows starting from “Blank (SFU)” and ending at “Pept-1/2/3 (150)” are all spot forming unit (SFU) values. The values in the parentheses in the first column are the concentration of each peptide in micrograms that were added to the PBMCs (e.g., Pept-1 50=50 micrograms of Peptide 1, Pept-1/2/3 50=50 micrograms of each of Peptide 1, Peptide 2, and Peptide 3). Pept-1=Peptide 1, Pept-2=Peptide 2, Pept-3=Peptide 3, the amino acid identities of which are mentioned above. D-Gli=deamidated gliadin. WT-Gli=wild-type gliadin. D-Glut=deamidated gluten. WT-Glut=wild-type gluten.
# IFNγ ELISpot responses in 9 older children (11-17 yo) and 6 younger children (3-10 yo) were stimulated by the mixture of peptides 1, 2, and 3 described in Example 1 (each peptide at a concentration of 25 ug/mL) or stimulated by deamidated gliadin (100 ug/mL) after 3-day wheat challenge (r2=0.8, p<0.0001). The ELISpot responses were similar using either the peptide mixture of the deamidated gliadin (FIG. 1).
sequence,measurement,setting,value
EQPFPQPEQPFPWQP ([pGlu]QPFPQPEQPFPWQP-NH2; SMILES NC(=O)CC[C@H](NC(=O)[C@H](Cc1c[nH]c2ccccc12)NC(=O)[C@@H]1CCCN1C(=O)[C@H](Cc1ccccc1)NC(=O)[C@@H]1CCCN1C(=O)[C@H](CCC(N)=O)NC(=O)[C@H](CCC(=O)O)NC(=O)[C@@H]1CCCN1C(=O)[C@H](CCC(N)=O)NC(=O)[C@@H]1CCCN1C(=O)[C@H](Cc1ccccc1)NC(=O)[C@@H]1CCCN1C(=O)[C@H](CCC(N)=O)NC(=O)[C@@H]1CCC(=O)N1)C(=O)N1CCC[C@H]1C(N)=O) [Peptide 2],most active peptides in gliadin for children,,most active
same,"SFU, IFNγ ELISpot","Subject A, 5.0 × 10^5 cells per well, 50 micrograms, listed as Pept-2",4 SFU and 3 SFU
same,"SFU, IFNγ ELISpot","Subject A, 5.0 × 10^5 cells per well, 100 micrograms, listed as Pept-2",5 SFU and 3 SFU
same,"SFU, IFNγ ELISpot","Subject B, 5.0 × 10^5 cells per well, 25 micrograms, listed as Pept-2",4 SFU and 6 SFU
same,"SFU, IFNγ ELISpot","Subject B, 5.0 × 10^5 cells per well, 50 micrograms, listed as Pept-2",7 SFU and 8 SFU
same,"SFU, IFNγ ELISpot","Subject C, 5.0 × 10^5 cells per well, 50 micrograms",4 SFU
same,"SFU, IFNγ ELISpot","Subject D, 4.0 × 10^5 cells per well, 25 micrograms, listed as Pept-2",17 SFU and 30 SFU
same,"SFU, IFNγ ELISpot","Subject D, 4.0 × 10^5 cells per well, 50 micrograms, listed as Pept-2",29 SFU and 32 SFU
same,"SFU, IFNγ ELISpot","Subject E, 5.0 × 10^5 cells per well, 25 micrograms, listed as Pept-2",55 SFU and 45 SFU
same,"SFU, IFNγ ELISpot","Subject E, 5.0 × 10^5 cells per well, 50 micrograms, listed as Pept-2",45 SFU and 43 SFU
same,"SFU, IFNγ ELISpot","Subject E, 5.0 × 10^5 cells per well, 100 micrograms, listed as Pept-2",67 SFU and 44 SFU
same,"SFU, IFNγ ELISpot","Subject F, 5.0 × 10^5 cells per well, 25 micrograms, listed as Pept-2",44 SFU and 59 SFU
same,"SFU, IFNγ ELISpot","Subject F, 5.0 × 10^5 cells per well, 50 micrograms, listed as Pept-2",64 SFU and 105 SFU
same,"SFU, IFNγ ELISpot","Subject F, 5.0 × 10^5 cells per well, 100 micrograms, listed as Pept-2",41 SFU and 59 SFU
same,"SFU, IFNγ ELISpot","Subject G, 4.0 × 10^5 cells per well, 25 micrograms",7 SFU
same,"SFU, IFNγ ELISpot","Subject G, 4.0 × 10^5 cells per well, 100 micrograms, listed as Pept-2",5 SFU and 9 SFU
same,"SFU, IFNγ ELISpot","Subject I, 5.0 × 10^5 cells per well, 25 micrograms",7 SFU
same,"SFU, IFNγ ELISpot","Subject I, 5.0 × 10^5 cells per well, 50 micrograms, listed as Pept-2",5 SFU and 6 SFU
same,"SFU, IFNγ ELISpot","Subject J, 5.0 × 10^5 cells per well, 25 micrograms, listed as Pept-2",85 SFU and 98 SFU
same,"SFU, IFNγ ELISpot","Subject J, 5.0 × 10^5 cells per well, 50 micrograms, listed as Pept-2",107 SFU and 83 SFU
same,"SFU, IFNγ ELISpot","Subject J, 5.0 × 10^5 cells per well, 100 micrograms, listed as Pept-2",81 SFU and 90 SFU
same,"SFU, IFNγ ELISpot","Subject K, 3.2 × 10^5 cells per well, 25 micrograms, listed as Pept-2",17 SFU and 22 SFU
same,"SFU, IFNγ ELISpot","Subject K, 3.2 × 10^5 cells per well, 50 micrograms, listed as Pept-2",19 SFU and 18 SFU
same,"SFU, IFNγ ELISpot","Subject K, 3.2 × 10^5 cells per well, 100 micrograms, listed as Pept-2",23 SFU and 15 SFU
same,"SFU, IFNγ ELISpot","Subject L, 3.5 × 10^5 cells per well, 25 micrograms, listed as Pept-2",5 SFU and 4 SFU
same,"SFU, IFNγ ELISpot","Subject L, 3.5 × 10^5 cells per well, 100 micrograms, listed as Pept-2",2 SFU and 4 SFU
same,"SFU, IFNγ ELISpot","Subject M, 2.3 × 10^5 cells per well, 25 micrograms, listed as Pept-2",28 SFU and 27 SFU
same,"SFU, IFNγ ELISpot","Subject M, 2.3 × 10^5 cells per well, 50 micrograms, listed as Pept-2",26 SFU and 29 SFU
same,"SFU, IFNγ ELISpot","Subject M, 2.3 × 10^5 cells per well, 100 micrograms, listed as Pept-2",32 SFU and 24 SFU
same,"SFU, IFNγ ELISpot","Subject N, 2.4 × 10^5 cells per well, 100 micrograms, listed as Pept-2",4 SFU and 7 SFU
same,"SFU, IFNγ ELISpot","Subject P, 3.0 × 10^5 cells per well, 0.5 micrograms, listed as Pept-2",10 SFU and 8 SFU
same,"SFU, IFNγ ELISpot","Subject P, 3.0 × 10^5 cells per well, 1 micrograms, listed as Pept-2",18 SFU and 11 SFU
same,"SFU, IFNγ ELISpot","Subject P, 3.0 × 10^5 cells per well, 5 micrograms, listed as Pept-2",19 SFU and 15 SFU
same,"SFU, IFNγ ELISpot","Subject Q, 3.0 × 10^5 cells per well, 0.5 micrograms, listed as Pept-2",44 SFU and 51 SFU
same,"SFU, IFNγ ELISpot","Subject Q, 3.0 × 10^5 cells per well, 1 micrograms, listed as Pept-2",31 SFU and 41 SFU
same,"SFU, IFNγ ELISpot","Subject Q, 3.0 × 10^5 cells per well, 2.5 micrograms, listed as Pept-2",44 SFU and 51 SFU
same,"SFU, IFNγ ELISpot","Subject Q, 3.0 × 10^5 cells per well, 5 micrograms, listed as Pept-2",30 SFU
same,"SFU, IFNγ ELISpot","Subject R, 3.0 × 10^5 cells per well, 0.1 micrograms, listed as Pept-2",18 SFU and 20 SFU
same,"SFU, IFNγ ELISpot","Subject R, 3.0 × 10^5 cells per well, 0.5 micrograms, listed as Pept-2",16 SFU and 14 SFU
same,"SFU, IFNγ ELISpot","Subject R, 3.0 × 10^5 cells per well, 1 micrograms, listed as Pept-2",15 SFU and 11 SFU
same,"SFU, IFNγ ELISpot","Subject R, 3.0 × 10^5 cells per well, 5 micrograms, listed as Pept-2",16 SFU
same,"SFU, IFNγ ELISpot","Subject S, 3.0 × 10^5 cells per well, 0.5 micrograms, listed as Pept-2",2 SFU and 1 SFU
same,"SFU, IFNγ ELISpot","Subject S, 3.0 × 10^5 cells per well, 1 micrograms, listed as Pept-2",5 SFU and 3 SFU
same,"SFU, IFNγ ELISpot","Subject S, 3.0 × 10^5 cells per well, 2.5 micrograms, listed as Pept-2",2 SFU and 3 SFU
same,"SFU, IFNγ ELISpot","Subject S, 3.0 × 10^5 cells per well, 5 micrograms, listed as Pept-2",5 SFU
same,"SFU, IFNγ ELISpot","Subject T, 3.0 × 10^5 cells per well, 0.1 micrograms, listed as Pept-2",33 SFU and 47 SFU
same,"SFU, IFNγ ELISpot","Subject T, 3.0 × 10^5 cells per well, 0.5 micrograms, listed as Pept-2",34 SFU and 39 SFU
same,"SFU, IFNγ ELISpot","Subject T, 3.0 × 10^5 cells per well, 1 micrograms, listed as Pept-2",41 SFU and 51 SFU
same,"SFU, IFNγ ELISpot","Subject T, 3.0 × 10^5 cells per well, 2.5 micrograms, listed as Pept-2",49 SFU and 56 SFU
same,"SFU, IFNγ ELISpot","Subject T, 3.0 × 10^5 cells per well, 5 micrograms, listed as Pept-2",68 SFU
same,"SFU, IFNγ ELISpot","Subject U, 3.0 × 10^5 cells per well, 0.1 micrograms, listed as Pept-2",8 SFU and 6 SFU
same,"SFU, IFNγ ELISpot","Subject U, 3.0 × 10^5 cells per well, 0.5 micrograms, listed as Pept-2",8 SFU and 12 SFU
same,"SFU, IFNγ ELISpot","Subject U, 3.0 × 10^5 cells per well, 1 micrograms, listed as Pept-2",13 SFU and 15 SFU
same,"SFU, IFNγ ELISpot","Subject U, 3.0 × 10^5 cells per well, 2.5 micrograms, listed as Pept-2",26 SFU and 33 SFU
same,"SFU, IFNγ ELISpot","Subject U, 3.0 × 10^5 cells per well, 5 micrograms, listed as Pept-2",28 SFU
same,T cell response in PBMC samples from children after gluten challenge,"general increase in SFU in each child, Tables 2-5",induce a T cell response
